System: marine pest anemone
Experiment: Empirically determined effective concentration ranges of ingredients in agar-anemonescide-desensitizer preparation
Format: in vivo
Conditions: concentration of the ingredient in the agar-anemonescide-desensitizer preparation
Excerpt: Table 1 also lists the empirically determined effective concentration ranges of the various ingredients. While it is believed that less than the minimal effective concentrations might impair the effectiveness of that ingredient, and more than effective concentration will not further improve the effectiveness, it is to be understood that the table is provided by way of enablement and is not to be construed as limiting the invention to the preferred ranges.

SMILES | Empirically Determined Effective Concentration range (Min-Max)
O=S(=O)([O-])[O-].[Ca+2] [CaSO4, calcium sulphate] | 5 to 150 g/L
O=S(=O)([O-])[O-].[Mg+2] [MgSO4, magnesium sulphate] | 0.5 to 10 g/L
O.O.[Ca+2].[Cl-].[Cl-] [CaCl2•2H2O] | 10-500 g/l
[Na+].[OH-] [NaOH, sodium hydroxide] | 5 to 120 g/L

System: sea anemone Anthopleura midorii
Experiment: not given
Conditions: added to artificial food; cited from earlier work

SMILES | effect on feeding motions
O=C(O)[C@@H]1CCCN1 [proline] | evoked mouth opening
N[C@@H](CCC(=O)N[C@@H](CS)C(=O)NCC(=O)O)C(=O)O [reduced glutathione (GSH), reduced glutathione] | induced food ingestion
N[C@@H](CS)C(=O)O [Cysteine] | induced food ingestion
NCC(=O)O [glycine] | stimulated the retention of artificial food by tentacles
N[C@@H](Cc1c[nH]cn1)C(=O)O [histidine] | stimulated the retention of artificial food by tentacles
NC(=O)C[C@H](N)C(=O)O [asparagine] | stimulated the retention of artificial food by tentacles
C[C@H](N)C(=O)O [alanine] | stimulated the retention of artificial food by tentacles

— patent publication US20100310679A1, “NOVEL COMPOSITIONS FOR CONTROL OF MALICIOUS MARINE ANEMONES” (priority 2008, published 2010)
